Source: patent US7323496B2, “Compounds for treatment of inflammation, diabetes and related disorders” (Theracos, Inc., priority 1999, dated 2008)

Legend:
3T3-L1 adipocytes [1] = experiment: Stimulation of glucose uptake in differentiated 3T3-L1 adipocytes with 100 nM insulin; format: cell-based; details: Mus musculus, 48 h, vehicle set at 100%, read-out: Percent Stimulation of Glucose Uptake
[2] = test system: human elutriated monocytes; experiment: Cell viability of human monocytes (MTS/PMS assay); format: cell-based; details: 30 μM
TNF-alpha [3] = experiment: Inhibition of LPS-induced TNF-alpha production in mice (plasma ELISA); format: in vivo, mouse; details: summary in words of Table 6, 50 or 100 mg/kg oral
PDE4 = experiment: Inhibition of PDE4 enzyme activity; format: biochemical, human; details: for Percent Inhibition of Enzyme Activity, PDE4: PDE4 from human U-937 cells, 1 μM cAMP
PDE3 = biological target: T1, PDE3 (Homo sapiens, UniProt Q14432); experiment: Inhibition of PDE3 enzyme activity; format: biochemical; details: PDE3 from human platelets
T1 construct: PDE3 partially purified from human platelets were used; from tissue; host or cells: human platelets

p44/42 MAP kinase = experiment: Inhibition of LPS-induced phosphorylation of p44/42 MAP kinase in RAW 264.7 gamma NO(-) cells (Western blot); format: cell-based, mouse; details: data not shown
DBA/1J mice = experiment: Collagen-induced arthritis in mice; format: in vivo, mouse; details: for arthritis clinical score (severity) compared with vehicle controls: FIG. 9
3T3-L1 adipocytes [4] = experiment: Glucose uptake in 3T3-L1 differentiated adipocytes (14C-deoxyglucose); format: cell-based, mouse; details: 48 hours with different concentrations, percentage of basal level, FIG. 1
3T3-L1 adipocytes [5] = experiment: Insulin-stimulated glucose uptake in 3T3-L1 adipocytes; format: cell-based, mouse; details: 5 μM, 48 hours, different concentrations of insulin, versus vehicle, FIG. 2
ob/ob mice [6] = experiment: Glucose-lowering effect in ob/ob mice; format: in vivo, mouse; details: 10 mg/kg daily oral, p<0.05
ob/ob mice [7] = experiment: Lipid-lowering effects in ob/ob mice; format: in vivo, mouse; details: 10 mg/kg daily oral, day 8, versus vehicle, p<0.05
TNF-alpha [8] = experiment: Inhibition of LPS-induced TNF-alpha production in RAW264.7 cells (ELISA); format: cell-based, mouse; details: RAW264.7, 10, 30 or 100 μM, LPS 0.1 μg/ml 6 hours; effect approached dexamethasone 1 μM, FIG. 5
IL-1 beta = experiment: Inhibition of LPS-induced IL-1 beta production in RAW264.7 cells (ELISA); format: cell-based, mouse; details: RAW264.7, 10, 30 or 100 μM, LPS 0.1 μg/ml 6 hours; same approximate magnitude as dexamethasone 1 μM, FIG. 6
IL-6 = experiment: Inhibition of LPS-induced IL-6 production in RAW264.7 cells (ELISA); format: cell-based, mouse; details: RAW264.7, 10, 30 or 100 μM, LPS 0.1 μg/ml 6 hours; greater than dexamethasone 1 μM, FIG. 7
iNOS = experiment: Inhibition of LPS-induced iNOS production in RAW264.7 cells (Western blot); format: cell-based, mouse; details: RAW264.7, 10, 30 or 100 μM, FIG. 8
COX-2 = experiment: Inhibition of LPS-induced COX-2 production in RAW264.7 cells (Western blot); format: cell-based, mouse; details: LPS-stimulated RAW264.7, 10, 30 or 100 μM, FIG. 8
COX-1 = COX-1 production in LPS-stimulated RAW264.7 cells (Western blot); format: cell-based, mouse; details: LPS-stimulated RAW264.7, 10, 30 or 100 μM, FIG. 8
[9] = low dose 40 mg/kg oral twice daily for 14 days

T1 sequence (Q14432 whole entry): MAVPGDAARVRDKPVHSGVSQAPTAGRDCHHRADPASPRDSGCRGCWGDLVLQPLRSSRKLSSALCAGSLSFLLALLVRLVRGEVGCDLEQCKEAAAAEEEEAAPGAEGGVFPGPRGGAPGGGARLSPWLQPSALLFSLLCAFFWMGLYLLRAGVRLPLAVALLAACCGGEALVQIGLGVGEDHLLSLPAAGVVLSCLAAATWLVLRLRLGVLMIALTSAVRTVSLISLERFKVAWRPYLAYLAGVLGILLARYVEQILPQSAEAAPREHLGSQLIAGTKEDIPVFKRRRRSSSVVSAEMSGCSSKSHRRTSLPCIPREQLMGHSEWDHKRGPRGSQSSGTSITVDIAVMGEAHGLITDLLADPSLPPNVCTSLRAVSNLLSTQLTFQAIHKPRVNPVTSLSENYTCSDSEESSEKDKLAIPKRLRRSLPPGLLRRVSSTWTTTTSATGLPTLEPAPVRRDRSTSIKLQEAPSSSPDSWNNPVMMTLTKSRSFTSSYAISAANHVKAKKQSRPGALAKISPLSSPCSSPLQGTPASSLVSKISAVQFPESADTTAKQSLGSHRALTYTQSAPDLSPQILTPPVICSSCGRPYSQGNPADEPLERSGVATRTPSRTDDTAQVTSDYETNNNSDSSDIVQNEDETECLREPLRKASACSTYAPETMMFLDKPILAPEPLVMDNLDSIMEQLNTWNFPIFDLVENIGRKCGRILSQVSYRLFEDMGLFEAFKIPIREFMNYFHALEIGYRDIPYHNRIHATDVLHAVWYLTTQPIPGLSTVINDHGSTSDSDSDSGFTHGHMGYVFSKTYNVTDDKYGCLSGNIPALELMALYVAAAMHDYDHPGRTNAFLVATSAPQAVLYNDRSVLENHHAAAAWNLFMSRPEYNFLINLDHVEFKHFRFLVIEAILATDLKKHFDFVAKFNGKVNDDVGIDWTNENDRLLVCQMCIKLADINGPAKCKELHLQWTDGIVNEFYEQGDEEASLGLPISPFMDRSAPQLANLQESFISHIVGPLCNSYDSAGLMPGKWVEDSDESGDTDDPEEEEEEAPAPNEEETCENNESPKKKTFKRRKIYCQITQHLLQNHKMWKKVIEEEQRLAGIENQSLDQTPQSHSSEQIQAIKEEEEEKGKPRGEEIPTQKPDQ

Row | SMILES | activity at 0.1 µM (3T3-L1 adipocytes [1]) [%] | activity at 1 µM (3T3-L1 adipocytes [1]) [%] | activity at 10 µM (3T3-L1 adipocytes [1]) [%] | also measured
1 | CCOC(=O)NC(=O)CCc1ccc(Oc2ccc(/C(=C\c3cc(OC)cc(OC)c3)C(=O)OC)cc2)cc1 [Compound 8, 3-(3,5-dimethoxyphenyl)-2-{4-[4-(3-ethoxycarbonylamino-3-oxo-propyl)-phenoxy]-phenyl}-acrylic acid methyl ester] | 115 | 132 | 171 | –
2 | COc1cc(/C=C(/C(=O)N2CCCCC2)c2ccc(Oc3ccc(CCC(=O)NC(N)=O)cc3)cc2)cc(OC)c1 [Compound 51, [3-(4-{4-[2-(3,5-dimethoxyphenyl)-1-(piperidine-1-carbonyl)-vinyl]-phenoxy}-phenyl)-propionyl]-urea] | 93 | 107 | 136 | Cell viability [2]: * (Cell viability <70%)
3 | CN(C)C(=O)/C(=C/c1cccnc1)c1ccc(Oc2ccc(CCC(N)=O)cc2)cc1 [Compound 77, 2-{4-[4-(2-carbamoyl-ethyl)-phenoxy]-phenyl}-N,N-dimethyl-3-pyridin-3-yl-acrylamide] | – | – | – | inhibition of LPS-induced TNF-alpha production in mice (TNF-alpha [3]): significantly inhibited
4 | CC(=O)NC(=O)CCc1ccc(Oc2ccc(/C(=C\c3ccc(F)cc3)C(=O)N(C)C)cc2)cc1 [Compound 56, 2-{4-[4-(3-acetylamino-3-oxopropyl)-phenoxy]-phenyl}-3-(4-fluorophenyl)-N,N-dimethylacrylamide] | 83 | 100 | 126 | –
5 | COc1cc(/C=C(/C(=O)N(C)C)c2ccc(Oc3ccc(CCC(=O)NC(N)=O)cc3)cc2)cc(OC)c1 [Compound 13, 3-(3,5-dimethoxyphenyl)-N,N-dimethyl-2-{4-[4-(3-oxo-3-ureido-propyl)-phenoxy]-phenyl}-acrylamide] | – | – | – | Percent Inhibition of Enzyme Activity, PDE4 (PDE4; 1 μM): 85%; Percent Inhibition of Enzyme Activity, PDE4 (PDE4; 10 μM): 98%; Percent Inhibition of Enzyme Activity, PDE4 (PDE4; 30 μM): 102%; IC50 (PDE4; PDE4 from human U-937 promonocytic cells): < 1 µM; IC50 (PDE3): 13.6 µM; inhibition of LPS/IFN-gamma induced phosphorylation of p44/42 (p44/42 MAP kinase; 30 μM and 10 μM, LPS 10 ng/ml / IFN-gamma 10 U/ml 15 min): dose-dependent manner; inhibition of LPS-induced phosphorylation of p44/42 MAP kinase (p44/42 MAP kinase; 30 μM, LPS 10 ng/ml 15 min): inhibited
6 | COc1cc(/C=C(/C(=O)N(C)C)c2ccc(Oc3ccc(CCC(N)=O)cc3)cc2)cc(OC)c1 [Compound 31, 2-{4-[4-(2-Carbamoylethyl)-phenoxy]-phenyl}-3-(3,5-dimethoxyphenyl)-N,N-dimethylacrylamide] | 107 | 119 | 161 | hind limb histology (DBA/1J mice; high dose 100 mg/kg oral twice daily for 14 days): reduction in incidence and severity of pannus formation, inflammation cell infiltration and bone/cartilage damage; arthritis clinical score (severity) compared with vehicle controls (DBA/1J mice; high dose 100 mg/kg oral twice daily for 14 days, about same extent as dexamethasone): prevented the increase in severity; hind limb histology (DBA/1J mice; [9]): marked chronic inflammation of synovium with pannus formation and destruction of bone and cartilage; arthritis clinical score (severity) compared with vehicle controls (DBA/1J mice; [9]): no apparent effect; inhibition of LPS-induced TNF-alpha production in mice (TNF-alpha [3]): significantly inhibited
7 | COc1cc(/C=C(/C(=O)N(C)C)c2ccc(Oc3ccc(CCC(=O)N4CCOCC4)cc3)cc2)cc(OC)c1 [Compound 40, 3-(3,5-Dimethoxyphenyl)-N,N-dimethyl-2-{4-[4-(3-morpholin-4-yl-3-oxopropyl)-phenoxy]phenyl}-acrylamide] | 126 | 117 | 126 | –
8 | COc1cc(/C=C(/C(=O)N(C)C)c2ccc(Oc3ccc(CCC(=O)NCC(=O)N4CCOCC4)cc3)cc2)cc(OC)c1 [Compound 63, 3-(3,5-Dimethoxyphenyl)-N,N-dimethyl-2-(4-{4-[2-(2-morpholin-4-yl-2-oxoethylcarbamoyl)-ethyl]-phenoxy}-phenyl)-acrylamide] | 107 | 112 | 139 | –
9 | COC(=O)NCc1ccc(Oc2ccc(/C(=C\c3cc(OC)cc(OC)c3)C(=O)N(C)C)cc2)cc1 [Compound 29, (4-{4-[2-(3,5-dimethoxyphenyl)-1-dimethylcarbamoyl-vinyl]-phenoxy}-benzyl)-carbamic acid methyl ester] | 106 | 124 | 120 | –
10 | COc1cc(/C=C(/C(=O)Nc2ccncc2)c2ccc(Oc3ccc(CCC(=O)NC(N)=O)cc3)cc2)cc(OC)c1 [Compound 60, 3-(3,5-dimethoxyphenyl)-2-{4-[4-(3-oxo-3-ureidopropyl)-phenoxy]-phenyl}-N-pyridin-4-ylacrylamide] | 93 | 120 | 229 | –
11 | COc1cc(/C=C(/C(=O)Nc2ccc(Cl)cc2)c2ccc(Oc3ccc(CCC(=O)NC(N)=O)cc3)cc2)cc(OC)c1 [Compound 61, N-(4-chlorophenyl)-3-(3,5-dimethoxyphenyl)-2-{4-[4-(3-oxo-3-ureidopropyl)-phenoxy]-phenyl}-acrylamide] | 93 | 120 | 229 | –
12 | COC(=O)C(=Cc1cc(OC)cc(OC)c1)c1ccc(Oc2ccc(CCC(=O)NC(N)=O)cc2)cc1 [Compound 1, 3-(3,5-dimethoxyphenyl)-2-{4-[4-(3-oxo-3-ureidopropyl)-phenoxy]-phenyl}-acrylyc acid methyl ester] | – | – | – | glucose uptake (3T3-L1 adipocytes [4]): dose-dependent increase; stimulation of glucose uptake by insulin (3T3-L1 adipocytes [5]): enhanced; decrease in blood glucose levels (ob/ob mice [6]; day 6, versus vehicle): 36%; decrease in blood glucose levels (ob/ob mice [6]; day 8, versus vehicle): 23%; decrease in free fatty acids (ob/ob mice [7]): 19%; decrease in serum triglycerides (ob/ob mice [7]): 49%; inhibition of LPS-induced production of TNF-alpha (TNF-alpha [8]): significantly inhibited; inhibition of LPS-induced production of IL-1 beta (IL-1 beta): significantly inhibited; inhibition of LPS-induced production of IL-6 (IL-6): significantly inhibited; inhibition of LPS-induced iNOS production (iNOS): dose-dependent inhibition; inhibition of production of COX-2 (COX-2): selectively inhibited; inhibition of production of COX-1 (COX-1): but not COX-1
13 | COc1cc(/C=C(/C(=O)N(C)C)c2ccc(Oc3ccc(CCC(=O)N4CCN(C)CC4)cc3)cc2)cc(OC)c1 [Compound 64, 3-(3,5-dimethoxyphenyl)-N,N-dimethyl-2-(4-{4-[3-(4-methylpiperazin-1-yl)-3-oxopropyl]-phenoxy}-phenyl)-acrylamide] | 108 | 113 | 127 | –
